Results as given in patent publication US12427192B2, “Water soluble adjuvant and composition containing same” (Sumitomo Pharma Co., Ltd., priority 2019, dated 2025).

Tested on: HLA-A*24:02 transgenic mouse
Assay: Test 3: in vivo CTL induction, cocktail vaccine b, IFNγ ELISPOT
Conditions: FIG. 1; for CTL counts responsive to Peptide SEQ ID No. 2 on adding the compound to cocktail vaccine b: vs cocktail vaccine b alone, 100 ng Example 1 or 69 ng Reference example 12 per body, intradermal, twice
Protocol: Evaluation of In Vivo CTL Induction in HLA-A*24:02 Transgenic Mouse
The in vivo adjuvant activity of the compound of Example 1 and the compound of Reference example 12 was evaluated in the following procedure. To a cocktail vaccine comprising Compound of formula 4 prepared in Reference example 8 and Peptide SEQ ID No. 3 prepared in Reference example 3 with Montanide ISA 51 V (hereinafter, referred to as “cocktail vaccine b”) was added the compound prepared in Example 1 or the compound prepared in Reference example 12 respectively to prepare each vaccine. The vaccine was administered to a HLA-A*24:02 transgenic mouse, and the adjuvant activity of each vaccine was evaluated by the method of testing antigen-specific cytotoxic T-lymphocyte (CTL) induction.
The CYTWNQMNL (SEQ ID No. 2) in Compound of formula 4 corresponds to an antigen peptide derived from an HLA-A*24:02-restricted WT1 protein.
HLA-A*24:02 transgenic mouse (C57BL/6CrHLA-A2402/K^b) expresses a chimeric HLA of a human MHC (HLA-A*24:02) and a mouse MHC (H-2K^b). The mouse can induce CTLs with a peptide which can induce CTLs in HLA-A*24:02-positive human (Int J Cancer. 2002; 100: 565-70).
The character for inducing CTLs specific to the peptide (SEQ ID No. 2) by cocktail vaccine b was evaluated by measuring whether IFNγ can be produced upon stimulation of splenocytes from the mouse with the peptide (SEQ ID No. 2). In addition, the character for exerting in vivo adjuvant activity by the compound in Example 1 or the compound in Reference example 12 was evaluated by comparing the number of CTLs induced by cocktail vaccine b and the number of CTLs induced by the vaccine prepared by adding the compound prepared in Example 1 or the compound in Reference example 12 to cocktail vaccine b, and checking presence or absence of the increase on the number.
Specifically, Compound of formula 4 and Peptide SEQ ID No. 3 were dissolved in DMSO, and then diluted with water for injection to concentrations of Compound of formula 4 of 6 mg/ml and Peptide of SEQ ID No. 3 of 4.5 mg/ml. […]

Structure (SMILES)	increase of the CTL counts (Peptide SEQ ID No. 2) compared with Reference example 12 (added to cocktail vaccine b, 100 ng Example 1 vs 69 ng Reference example 12 per body)	CTL counts responsive to Peptide SEQ ID No. 2 on adding the compound to cocktail vaccine b
CCCCCNc1nc(N)nc(C)c1Cc1ccc(CN(C)CCOCCOCCOCCOCCO)cc1OC [Example 1, 1-(4-{[2-amino-4-methyl-6-(pentylamino)pyrimidin-5-yl]methyl}-3-methoxyphenyl)-2-methyl-5,8,11,14-tetraoxa-2-azahexadecan-16-ol·trifluoroacetate]	more	increased
CCCCCNc1nc(N)nc(C)c1Cc1ccc(CNC)cc1OC [Reference example 12, 5-({2-methoxy-4-[(methylamino)methyl]phenyl}methyl)-6-methyl-N^4-pentylpyrimidine-2,4-diamine, reference compound]		increased
